Measured values as given in article PMC12194779, “Synergistic Insecticidal Activity of Plant Volatile Compounds: Impact on Neurotransmission and Detoxification Enzymes in Sitophilus zeamais” (Insects, 2025).
Several values for one entry are separate records, joined by “and”; a condition that tells them apart may be missing. Equal values may be shown once. Read-outs that look alike come from different tables or passages of the source.

Legend:
Sitophilus zeamais [1] = type: in vivo; details: for Contact Toxicity LD50i (LC-95%): mixtures and their components (Table 3)
Protocol: (§1) The insects used in this study were Sitophilus zeamais Motschulsky (Coleoptera: Curculionidae), identified by the Instituto Colombiano Agropecuario (ICA) under report number R3823M0000425. […] The adult insects used in all the experiments were 6 to 10 days post-emergence.
Groups of 10 insects, previously placed in Petri dishes, were immobilized by exposure to low temperatures (0 °C). An initial dose of 50.0 µg per adult was applied topically to the dorsal thorax of each insect using aliquots of 0.20 µL from 0.25 mg/µL solutions in n-hexane. […] All treatments were performed in two independent experiments, each with four replicates. Insect mortality was assessed after 24 h, and mortality percentages were calculated using Abbott’s correction formula (Equation (1)).
(§2) Mixtures predicted by the RSM were prepared based on mole fractions. […] Four replicates were performed for each treatment and control across two independent experimental runs.
(§3) Dose reduction indices (DRIs) were also calculated to estimate how much the dose of each compound in a synergistic combination could be reduced to achieve a 50% effect (Equation (4)). DRIs were interpreted as favorable when >1, neutral at 1, and unfavorable when <1.

Sitophilus zeamais [2] = test: whole plant or invertebrate; details: for LC50 / EC90: Sitophilus zeamais; for EC90: read-out: Fumigant Toxicity LC90 (95% FL)
Protocol: as §1
The treated disks were affixed to the inner surface of the screw cap of 22 mL glass vials. […] All treatments were performed in two independent experiments, each with five replicates.
as §2
as §3, with “<1. Values above the log DRI = 0 line indicate favorable dose reductions.(4) (IRD)i=CL50i(fax)i/(1−(fax)i)^1/mi/(D)i” for “<1.”

[3] = test system: glutathione S-transferase (GST) activity in S. zeamais; test: GST activity assay (modified Habig) with S. zeamais protein extract; type: biochemical, Sitophilus zeamais; details: 120 mg/L
Protocol: Enzymatic assays were performed in the assay buffer, consisting of 0.1 M potassium phosphate buffer (pH 7.2). The compounds and mixtures evaluated in the in vitro assays were prepared in the same buffer supplemented with 0.5% (v/v) Triton X-100 (Sigma-Aldrich®, Saint Louis, MO, USA).
A modified version of the method described by Oviedo et al. was used. Adults of S. zeamais (8 g; ~3125 insects) were frozen in liquid nitrogen, homogenized in a 1:10 ratio with assay buffer, and centrifuged at 13,000× g for 60 min at 4 °C. The supernatant was filtered, and 20 mM benzamidine was added. The extracts were stored in 5 mL aliquots at −20 °C. Preliminary assays were performed to quantify the specific activity of AChE (0.02–1.00 U/mL), GST (0.1–0.8 U/mL), and CAT (0.1–25 U/mL), and to optimize assay conditions (enzyme dilution: 1/8 to 1% v/v; substrate concentrations: 2 × km or within assay linearity). Each experiment was performed independently three times, with three technical replicates per experiment.
A modified version of Habig’s method was used. The protein extract (50 µL; 0.59 U/mL) was incubated with 50 µL of the compound or mixture (120 mg/L), followed by 50 µL each of CDNB and reduced glutathione (GSH). Kinetic absorbance was measured at 340 nm for 8 min. Blanks (without substrate) and quercetin (positive control) were included. Inhibition (%) was calculated using Equation (5), and treatment differences were evaluated via parametric ANOVA (α = 0.05) in GraphPad Prism 8.0.2 [42, 43]. Each experiment was performed independently three times, with three technical replicates per experiment.(5) % Inhibition=1−Am−AB/AC ×100 where Am is the absorbance of the sample, AB is the absorbance of the blank, and AC is the absorbance of the negative control.

AChE of S. zeamais = test: AChE activity assay (modified Ellman) with S. zeamais protein extract; type: biochemical, Sitophilus zeamais; design: key to AChE Effect Inhibitor Type: C: competitive inhibitor; NC: non-competitive inhibitor; details: for AChE Effect Inhibitor Type: Lineweaver–Burk; for AChE Effect IC50 ± SD / Ki: S. zeamais protein extract; for Ki: read-out: AChE Effect ki ± SD (inhibitory constant)
Protocol: The compounds and mixtures evaluated in the in vitro assays were prepared in the same buffer supplemented with 0.5% (v/v) Triton X-100 (Sigma-Aldrich®, Saint Louis, MO, USA).
The supernatant was filtered, and 20 mM benzamidine was added. The extracts were stored in 5 mL aliquots at −20 °C. Preliminary assays were performed to quantify the specific activity of AChE (0.02–1.00 U/mL), GST (0.1–0.8 U/mL), and CAT (0.1–25 U/mL), and to optimize assay conditions (enzyme dilution: 1/8 to 1% v/v; substrate concentrations: 2 × km or within assay linearity).
Then, 50 µL of DTNB and 50 µL of ATChI were added. […] Inhibition percentages were calculated using Equation (5).

[4] = in Homo sapiens, 24 h, read-out: Fumigant Toxicity LC50 (95% FL)
[5] = 24 h, read-out: Fumigant Toxicity LC50i (LC-95%)
[6] = read-out: LC50 values, fumigant activity (Figure 3)

Row | Compound | Contact Toxicity LD50 (95% FL) (Sitophilus zeamais [1]; topical, 24 h after exposure) | Contact Toxicity LD90 (95% FL) (Sitophilus zeamais [1]; topical, 24 h after exposure) | LC50 (Sitophilus zeamais [2]; [4]) | EC90 (Sitophilus zeamais [2]; in Homo sapiens, 24 h) | GST Inhibition λ340 (%) [3] | LC50 (Sitophilus zeamais [2]; [5]) | also measured
1 | CC1(C)C(=O)[C@]2(C)CC[C@H]1C2 [Compound C8, 1R-(−)-Fenchone] | 34.65 (32.19–37.08) µg/Adult | 48.33 (45.12–52.78) µg/Adult | 10.6 µg/mL and 69.6 µM | 17.1 µg/mL and 112 µM |  |  | 
2 | CC1(C)C(C=C(Cl)Cl)C1C(=O)OC(C#N)c1cccc(Oc2ccccc2)c1 (stereo not shown) [Cypermethrin, reference compound] | 10.492 (0.00–29.96) µg/Adult | 35.79 (21.98–84.37) µg/Adult |  |  |  |  | Contact Toxicity LD50i (LC-95%) (Sitophilus zeamais [1]): 10.49 (0.10–19.96) µg/Adult; Contact Toxicity LD50i (LC-95%) (Sitophilus zeamais [1]; listed as cypermethrin): 10.49 µg/Adult
3 | CC1=CC(=O)C(C(C)C)CC1 (stereo not shown) [Compound C22, Piperitone] |  | 14.70 (13.25–16.96) µg/Adult | 4.38 µg/mL and 28.8 µM | 6.19 µg/mL and 40.7 µM |  |  | 
4 | CC1C(=O)CC2(C(C)C)CC12 (stereo not drawn) [Compound C6, α, β-Thujone (70:10)] | 32.04 (29.44–34.42) µg/Adult | 44.67 (41.56–49.34) µg/Adult | 4.34 µg/mL and 28.5 µM | 6.81 µg/mL and 44.7 µM |  |  | 
5 | C=CC(C)(O)CCC=C(C)C (stereo not shown) [Compound C28, Linalool] | 21.87 (19.09–24.23) µg/Adult | 36.23 (33.20–40.64) µg/Adult |  |  |  |  | 
6 | CCCCCCCCCC(C)=O [Compound C36, 2-Undecanone] | 42.86 (40.60–45.30) µg/Adult | 57.13 (53.43–62.83) µg/Adult |  |  |  |  | 
7 | C=C1CCC2CC1C2(C)C (stereo not drawn) [Compound C17, β-Pinene] |  |  |  | 151 µg/mL |  |  | 
8 | C=C(C)[C@@H]1CC[C@@H](C)CC1=O [Compound C23, 2S,5R-Isopulegone] |  | 18.48 (16.56–21.64) µg/Adult | 2.37 µg/mL and 15.6 µM | 3.88 µg/mL and 25.5 µM | 19.4% | 2.37 µg/mL | Contact Toxicity LD50i (LC-95%) (Sitophilus zeamais [1]): 11.14 µg/Adult
9 | C=CCc1ccc(OC)cc1 [Compound C11, Estragole] |  |  | 30.5 µg/mL and 206 µM | 57.5 µg/mL and 388 µM | ~ 17.5% and 17.6% | 30.5 µg/mL | Contact Toxicity LD90 (95% FL) (Sitophilus zeamais [1]; in vivo): 79.66 (68.62–99.73) µg/Adult; AChE inhibition type (Lineweaver–Burk plots), in words (AChE of S. zeamais): competitive inhibition; AChE Effect Inhibitor Type (AChE of S. zeamais): C; AChE Effect IC50 ± SD (AChE of S. zeamais): 27.41 ± 1.64 µg/mL; Ki (AChE of S. zeamais): 159 ± 6.34 µM
10 | C=C(C)C1CC=C(C)CC1 (racemic) [Compound C16, DL-Limonene (1:1)] |  |  | 88.7 µg/mL and 651 µM | 136 µg/mL and 999 µM | 7.4% | 88.7 µg/mL | AChE inhibition type (Lineweaver–Burk plots), in words (AChE of S. zeamais): non-competitive inhibition; AChE Effect Inhibitor Type (AChE of S. zeamais): NC; AChE Effect IC50 ± SD (AChE of S. zeamais): 26.69 ± 2.90 µg/mL; Ki (AChE of S. zeamais): 79.64 ± 0.55 µM
11 | C=C(C)[C@H]1CC=C(C)C(=O)C1 [Compound C3, S-(+)-Carvone] | 12.68 (10.91–14.60) µg/Adult | 23.236 (20.46–27.42) µg/Adult | 2.87 µg/mL and 19.1 µM | 5.31 µg/mL and 35.4 µM | 23.0% | 2.87 µg/mL | Contact Toxicity LD50i (LC-95%) (Sitophilus zeamais [1]): 12.68 µg/Adult; AChE inhibition type (Lineweaver–Burk plots), in words (AChE of S. zeamais): competitive inhibition; AChE Effect Inhibitor Type (AChE of S. zeamais): C; AChE Effect IC50 ± SD (AChE of S. zeamais): 66.27 ± 4.35 µg/mL; Ki (AChE of S. zeamais): 56.76 ± 0.18 µM; LC50 (Sitophilus zeamais [2]; [6]): 2.87 µg/mL
12 | CCCCCCCCC(C)=O [Compound C35, 2-Decanone] | 38.04 (35.29–40.84) µg/Adult | 57.17 (52.97–63.12) µg/Adult |  |  |  |  | LC50 (Sitophilus zeamais [2]; [6]): > 150 µg/mL
13 | CCCCCCCC(=O)CCC [Compound C34, 4-Undecanone] | 37.05 (34.09–40.01) µg/Adult | 53.95 (49.63–60.68) µg/Adult |  |  |  |  | 
14 | CC1=CCC(C(C)C)=CC1 [Compound C21, γ-Terpinene] |  |  | 108 µg/mL and 792 µM | 188 µg/mL and 1.38 mM | 25.9% | 108 µg/mL | 
15 | CC1=CCC(=C(C)C)CC1 [Compound C24, Terpinolene] |  |  | 52.1 µg/mL and 338 µM | 88.8 µg/mL and 576 µM |  |  | 
16 | C=CCc1ccc2c(c1)OCO2 [Compound C32, Safrole] | 36.31 (30.15–42.37) µg/Adult | 83.04 (73.50–96.63) µg/Adult |  |  |  |  | Contact toxicity, times less active than biosynthetic precursors C26 and C31 (Sitophilus zeamais [1]; in vivo): 1.5 times
17 | CC(C)=CCC/C(C)=C/CO [Compound C30, Geraniol] | 28.13 (25.70–30.49) µg/Adult | 41.06 (37.98–45.41) µg/Adult |  |  |  |  | 
18 | CC(C)=CCC/C(C)=C/C=O [Compound C27, Citral] |  | 32.68 (29.77–36.82) µg/Adult |  |  |  |  | 
19 | CC1=CC[C@H]2[C@@H](C1)C2(C)C [Compound C15, δ-3-Carene] |  |  | 80.3 µg/mL and 590 µM | 136 µg/mL and 997 µM | 7.3% | 80.3 µg/mL | AChE inhibition type (Lineweaver–Burk plots), in words (AChE of S. zeamais): non-competitive inhibition; AChE Effect Inhibitor Type (AChE of S. zeamais): NC; Ki (AChE of S. zeamais): 2.85 ± 0.05 µM
20 | CCCCCCCC(C)=O [Compound C9, 2-Nonanone] | 31.86 (30.27–33.17) µg/Adult | 39.69 (38.01–42.15) µg/Adult | 9.09 µg/mL and 63.9 µM | 13.7 µg/mL and 96.5 µM |  |  | 
21 | Isoeugenol [Compound C31] | 29.1 (24.40–34.21) µg/Adult | 66.2 (57.28–80.01) µg/Adult |  |  |  |  | 
22 | C=C(C)[C@@H]1CC[C@@H](C)C[C@H]1O [Compound C7, 1R,2S,5R-Isopulegol] |  | 26.65 (25.07–28.90) µg/Adult | 4.73 µg/mL and 30.7 µM | 7.19 µg/mL and 46.6 µM | 10.6% | 4.73 µg/mL | AChE inhibition type (Lineweaver–Burk plots), in words (AChE of S. zeamais): competitive inhibition; AChE Effect Inhibitor Type (AChE of S. zeamais): C; AChE Effect IC50 ± SD (AChE of S. zeamais): 18.15 ± 0.64 µg/mL; Ki (AChE of S. zeamais): 282 ± 4.14 µM
23 | COP(=O)(OC)OC=C(Cl)Cl [Dichlorvos, reference compound] |  |  | 2.17 µg/mL and 9.84 µM | 4.57 µg/mL and 20.7 µM |  | 2.17 µg/mL | AChE Effect IC50 ± SD (AChE of S. zeamais): 0.0096 ± 0.00208 µg/mL; Fumigant Toxicity LC50i (LC-95%) (Sitophilus zeamais [2]; mixtures and their components (Table 3)): 2.17 (1.53–3.81) mg/L
24 | C=C1CCC2(C(C)C)CC12 (stereo not shown) [Compound C18, Sabinene] |  |  | 68.7 µg/mL and 504 µM | 102 µg/mL and 750 µM | 25.9% | 68.7 µg/mL | LC50 (Sitophilus zeamais [2]; [6]): 68.6 µg/mL
25 | CC(=O)OC/C=C(\C)CCC=C(C)C [Compound C37, Geranyl acetate] | 73.00 (65.98–81.05) µg/Adult | 126.06 (112.84–146.08) µg/Adult |  |  |  |  | 
